Assay [1] has as its system orchiectomized (ORX) Wistar rats. The assay is classed as in vivo, rat. To be noted: ORX rats, 0.4 mg/kg subcutaneous 10 d, positive control of oral study. The protocol:
Protocol 3: Four-week-old sham-operated (sham, n=6) or orchiectomized (ORX, n=24) Wistar rats (Charles River Laboratories, MA) were subject to a 10-d Hershberger assay (surgically castrated peri-pubertal adult model) under the following experimental conditions: sham, ORX (vehicle), ORX (20 mg/kg HB orally), ORX (60 mg/kg HB orally), and ORX (0.4 mg/kg testosterone propionate subcutaneously, serving as a positive control for the assay). All procedures and measurements followed protocol 1, except no body composition measurements were taken. Limb grip strength was measured for control animals and animals receiving 60 mg/kg HB using a digital force gauge (Wagner Instruments model FDV5) by Product Safety Laboratories (Dayton, N.J.). After the rats were allowed to grip the screen with paws, the animals were quickly pulled until the paws released from the screen, and the required release force was recorded. Three trials on each animal were performed in triplicate, and significance was determined using Student's t test (p<0.05). In addition to the gastrocnemius muscle, androgen-sensitive tissues (ventral prostate, seminal vesicles, bulbocavernosus/levator ani muscle complex, glans penis, and Cowper's gland) were dissected out and weighed.
The muscle samples for histochemical analysis were taken from the middle section of the mixed-fiber gastrocnemius muscle of the castrated animals treated according to protocol 4 (described herein above) to allow for the observation of differences in fiber type distribution and cross-section area associated with ORX and HB treatments. Serial transverse cryosections (10 μm) were prepared from each muscle and were analyzed for myofibrillar adenosine triphosphatase (mATPase) histochemistry after alkaline (pH=9.5) preincubation. Fiber cross-section area and enzyme activity levels were determined from digitized images of the muscle cross-sections that were stored as gray-level pictures using ImageJ software (National Institutes of Health, Bethesda, Md.). […]

Assay [2] has the same test system. Put plainly: 10-d Hershberger assay in ORX rats, subcutaneous HB (Protocol 4). It counts as in vivo, rat. To be noted: 0.4 mg/kg subcutaneous daily 10 d. The protocol: Protocol 4: Four-week-old sham-operated (sham, n=6) or orchiectomized (ORX, n=24) Wistar rats (Charles River Laboratories, MA) were subject to a 10-d Hershberger assay (surgically castrated peri-pubertal adult model) under the following experimental conditions: sham, ORX (vehicle), ORX (0.4 mg/kg HB subcutaneously), ORX (4 mg/kg HB subcutaneously), and ORX (0.4 mg/kg testosterone propionate subcutaneously, serving as a positive control for the assay). All procedures and measurements followed protocol 1. […]

Structures are written as SMILES. Read-outs that look alike come from different tables or passages of the source.

For `CCC(=O)O[C@H]1CC[C@H]2[C@@H]3CCC4=CC(=O)CC[C@]4(C)[C@H]3CC[C@]12C` [testosterone propionate, reference compound], in assay [1], the Bulbocavernosus/levator ani weight came out at 382.0 ± 22.0 mg, the “Cowper's gland weight” value is given as 34.5 ± 4.7 mg, the Glans penis weight is 93.8 ± 4.2 mg and the Seminal vesicles weight is reported as 262.5 ± 12.5 mg. The Ventral prostate weight in assay [1] came out at 110.50 ± 9.5 mg. In assay [2], the Bulbocavernosus/levator ani weight came to 293.8 ± 19.0 mg, the “Cowper's gland weight” value turned out to be 34.3 ± 1.9 mg, the Glans penis weight was 72.3 ± 4.5 mg and the Seminal vesicles weight was found to be 228.7 ± 35.3 mg. In assay [2], the Ventral prostate weight was found to be 92.8 ± 6.3 mg.

The values above are taken from US20140128357A1, “METHODS OF PRODUCING AND USING BRASSINOSTEROIDS TO PROMOTE GROWTH, REPAIR AND MAINTENANCE OF SKELETAL MUSCLE AND SKIN” (Rutgers University, priority 2010, published 2014).
